The source of these data is article PMC3625111 (Biochemical Pharmacology, 2013).

“Also recorded” adds a separate entry of the source. Where two headings read alike, the source gives them in different places.

One series deals with T1, PDE4B2 (Homo sapiens, UniProt Q07343).
T1 construct: expressed in transfected cells; host or cells: HEK293
Nature of the series: PDE activity two-step radioassay, PDE4B2 lysate. The settings on record: for IC50: PDE4B2 from transfected HEK293 lysate, cAMP hydrolysis, n = 3. Type of series: biochemical. The procedure: (§1) Expression plasmids encoding human PDE4 were as previously described by us [[27,28]]. The plasmids were purified from Escherichia coli using the Maxi-prep system (Qiagen, UK). For transient transfections, HEK293 cells were seeded at a 1:3 ratio into culture flasks 24 h before transfection so that cells were ~60% confluent by the time of transfection. Transfections were carried out using PolyFect® transfection reagent (Qiagen, UK) in accordance with manufacturer's instructions.
Samples were then frozen on solid CO2, thawed and then manually homogenised, followed by passage through a 26-gauge needle several times to ensure complete cell lysis. Cells were centrifuged at 13,000 rpm for 10 min to remove any unbroken cells, and the resulting supernatant was frozen in solid CO2 and stored at −80 °C until required. For experimentation, the protein concentration of whole-cell lysate from transfected and mock-transfected (vector only) cells was equalised (typically to 1 μg/μl). Protein concentration was determined through Bradford Assay using bovine serum albumin as standard.
PDE activity was determined using a two-step radioassay procedure as described previously. Activities for each PDE subtype were related to a non-drug treated sample (100% control) over an increasing dose of the indicated compounds. IC50 values were calculated using.

The subject of series [1] is SH-SY5Y cells stably expressing Epac1-camps. Put plainly: FRET imaging of cAMP with Epac1-camps biosensor. Type of series: cell-based. The settings on record: added after forskolin 5 μM. The method, then: HEK293 cells were maintained in DMEM containing 10% (v/v) FBS, 2 mM L-glutamine and 1% penicillin/streptomycin. SH-SY5Y cells were maintained in DMEM:F12 (1:1) containing 10% (v/v) FBS, 2 mM L-glutamine and 1% penicillin/streptomycin. For FRET analysis SH-SY5Y cells stably expressing Epac1-camps under G418 selection (500 μg/ml) were seeded onto 22 mm round glass coverslips and maintained in a 6 well plate 24 h prior to use.
FRET imaging experiments were performed on SH-SY5Y-Epac1-camps stables. Cells were maintained at room temperature in DPBS (Invitrogen, UK), with added CaCl2 and MgCl2, and imaged on an inverted microscope (Olympus IX71) with a PlanApoN, 60X, NA 1.42 oil, 0.17/FN 26.5, objective (Japan). The microscope was equipped with a CCD camera (cool SNAP HQ monochrome, Photometrics), and a beam-splitter optical device (Dual-channel simultaneous-imaging system, DV^2 mag biosystem (ET-04-EM)). Imaging acquisition and analysis software used was Meta imaging series 7.1, Metafluor, and processed using ImageJ (http://rsb.info.nih.gov/ij/). FRET changes were measured as changes in the background-subtracted 480/545-nm fluorescence emission intensity on excitation at 430 nm and expressed as either R/R0, where R is the ratio at time t and R0 is the ratio at time = 0 s, or ΔR/R0, where ΔR = R − R0. Values are expressed as the mean ± SEM.

The subject of another series is SH-SY5Y cells. Nature of the series: Hsp20 phosphorylation assay (western blot, phospho-serine 16). Type of series: cell-based. The settings on record: for Hsp20 phosphorylation (serine 16): rolipram 10 μM, moexipril, 7, 8 at 50 μM, 0.5, 1, 2 h. The method, then:
Compounds were diluted in media and added to cells for 0.5, 1 and 2 h prior to harvesting using 3T3 lysis buffer (1% Triton X-100, 50 mM Hepes, pH 7.2, 10 mM EDTA and 100 mM NaH2PO4) supplemented with protease inhibitor Mini-Complete (Roche) and phosphatase inhibitor PHOS-stop (Roche, UK). Hsp20 expression was analysed using standard SDS-PAGE and Western Blotting techniques using the phospho-Hsp20 antibody (ab58522 Abcam, UK) and alpha-tubulin-HRP antibody (ab40742 Abcam, UK) as the loading control. Western blotting for PDE4s was undertaken using antibodies previously described by us.
(In western blotting, separated proteins are transferred to a membrane and probed.)

The conditions of series [2]: cited from earlier work; for brain uptake: ref not given.
Another series concerns the target T2, PDE4D5 (Homo sapiens, UniProt Q08499).
T2 construct: expressed in transfected cells; host or cells: HEK293
Put plainly: PDE activity two-step radioassay, PDE4D5 lysate. Type of series: biochemical. The procedure:
as §1
Cells (~90–100% confluent) were transfected for 48 h with cDNA encoding PDE4B2, PDE4A5, PDE4D5, PDE8A and PDE5, washed with PBS and harvested by using a cell scraper in KHEM buffer (50 mM KCl, 50 mM HEPES; pH 7.2, 10 mM EGTA, 1.92 mM MgCl2, 1 mM dithiothreitol (DTT)) supplemented with protease inhibitor Mini-Complete (Roche, UK). Samples were then frozen on solid CO2, thawed and then manually homogenised, followed by passage through a 26-gauge needle several times to ensure complete cell lysis. Cells were centrifuged at 13,000 rpm for 10 min to remove any unbroken cells, and the resulting supernatant was frozen in solid CO2 and stored at −80 °C until required. […] Protein concentration was determined through Bradford Assay using bovine serum albumin as standard.
PDE activity was determined using a two-step radioassay procedure as described previously. […] IC50 values were calculated using. […]

The target of a further series is T3, PDE8A (Homo sapiens, UniProt O60658).
T3 construct: expressed in transfected cells; host or cells: HEK293
Nature of the series: PDE activity two-step radioassay, PDE8A lysate. Type of series: biochemical. The settings on record: dose response, Fig. 3C. The method, then:
(§2) Cells (~90–100% confluent) were transfected for 48 h with cDNA encoding PDE4B2, PDE4A5, PDE4D5, PDE8A and PDE5, washed with PBS and harvested by using a cell scraper in KHEM buffer (50 mM KCl, 50 mM HEPES; pH 7.2, 10 mM EGTA, 1.92 mM MgCl2, 1 mM dithiothreitol (DTT)) supplemented with protease inhibitor Mini-Complete (Roche, UK). Samples were then frozen on solid CO2, thawed and then manually homogenised, followed by passage through a 26-gauge needle several times to ensure complete cell lysis. Cells were centrifuged at 13,000 rpm for 10 min to remove any unbroken cells, and the resulting supernatant was frozen in solid CO2 and stored at −80 °C until required. For experimentation, the protein concentration of whole-cell lysate from transfected and mock-transfected (vector only) cells was equalised (typically to 1 μg/μl). Protein concentration was determined through Bradford Assay using bovine serum albumin as standard.
(§3) PDE activity was determined using a two-step radioassay procedure as described previously. Activities for each PDE subtype were related to a non-drug treated sample (100% control) over an increasing dose of the indicated compounds. IC50 values were calculated using. In all cases, the transfected PDE accounted for over 97% of the total PDE activity when compared with the untransfected control lysates.

The target in another series is T4, PDE5 (Homo sapiens, UniProt O76074).
T4 construct: expressed in transfected cells; host or cells: HEK293
Put plainly: PDE activity two-step radioassay, PDE5 lysate. The series is classed as biochemical. The conditions noted are these: dose response, Fig. 3C. The method, then:
as §2, §3

A short description of series [3]: Colloidal aggregation by dynamic light scattering. Type of series: physicochemical.
The target in the next series is beta-lactamase (Escherichia coli, UniProt P00811). Put plainly: beta-lactamase inhibition (aggregation counter-screen). The conditions noted are these: at 10 or 100 μM. The series is classed as biochemical. On the technique in general: The purpose of a counterscreen is to sort out artefacts and off-target activity.
A further series concerns porcine serum ACE. On the set-up: method as in PMID 3508548, PMID 2999531. The conditions noted are these: vs porcine serum ACE; cited from earlier work.
Details of series [4]: method as in printed. The conditions noted are these: oral dose of 15 mg, ref not given, cited from earlier work.
On the set-up of series [5]: method as in PMID 3508548, PMID 2999531. The settings on record: use in hypertension; cited from earlier work.

T1 sequence (Q07343 1-564 isoform Q07343-2): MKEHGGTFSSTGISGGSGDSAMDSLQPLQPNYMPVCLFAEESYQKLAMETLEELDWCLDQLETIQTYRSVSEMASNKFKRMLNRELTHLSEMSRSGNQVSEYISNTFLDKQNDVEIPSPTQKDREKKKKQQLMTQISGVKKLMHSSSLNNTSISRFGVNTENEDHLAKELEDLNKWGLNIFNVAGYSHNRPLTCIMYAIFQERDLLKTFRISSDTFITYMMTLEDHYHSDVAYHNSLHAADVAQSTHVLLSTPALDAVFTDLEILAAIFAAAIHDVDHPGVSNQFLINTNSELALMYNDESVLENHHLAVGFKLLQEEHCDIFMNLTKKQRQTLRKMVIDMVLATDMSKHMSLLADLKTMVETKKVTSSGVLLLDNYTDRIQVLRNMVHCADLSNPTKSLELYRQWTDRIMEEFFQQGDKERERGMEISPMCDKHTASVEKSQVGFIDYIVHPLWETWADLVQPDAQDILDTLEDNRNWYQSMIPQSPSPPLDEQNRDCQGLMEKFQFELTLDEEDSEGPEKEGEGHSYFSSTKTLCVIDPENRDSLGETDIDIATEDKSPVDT
T2 sequence (Q08499 1-745 isoform Q08499-6): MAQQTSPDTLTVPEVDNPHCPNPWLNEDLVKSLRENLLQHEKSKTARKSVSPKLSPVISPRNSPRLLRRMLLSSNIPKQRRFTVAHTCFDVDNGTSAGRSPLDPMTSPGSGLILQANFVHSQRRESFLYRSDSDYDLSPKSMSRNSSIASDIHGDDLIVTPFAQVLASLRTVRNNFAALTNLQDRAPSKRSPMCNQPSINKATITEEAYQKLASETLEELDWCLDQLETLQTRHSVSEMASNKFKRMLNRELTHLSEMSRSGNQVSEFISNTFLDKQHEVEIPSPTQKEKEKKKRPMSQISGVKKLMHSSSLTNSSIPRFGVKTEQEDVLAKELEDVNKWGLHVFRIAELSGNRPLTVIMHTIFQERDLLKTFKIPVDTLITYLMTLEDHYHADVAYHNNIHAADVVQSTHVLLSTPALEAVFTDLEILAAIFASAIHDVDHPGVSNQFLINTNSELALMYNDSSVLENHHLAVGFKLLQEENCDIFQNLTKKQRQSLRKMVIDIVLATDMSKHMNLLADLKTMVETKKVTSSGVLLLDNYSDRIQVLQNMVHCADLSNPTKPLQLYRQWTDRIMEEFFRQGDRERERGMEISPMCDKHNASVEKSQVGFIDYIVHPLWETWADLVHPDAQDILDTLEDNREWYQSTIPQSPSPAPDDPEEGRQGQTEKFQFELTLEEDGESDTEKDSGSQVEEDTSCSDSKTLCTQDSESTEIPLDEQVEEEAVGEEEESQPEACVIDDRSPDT
beta-lactamase, sequence (P00811 20-377): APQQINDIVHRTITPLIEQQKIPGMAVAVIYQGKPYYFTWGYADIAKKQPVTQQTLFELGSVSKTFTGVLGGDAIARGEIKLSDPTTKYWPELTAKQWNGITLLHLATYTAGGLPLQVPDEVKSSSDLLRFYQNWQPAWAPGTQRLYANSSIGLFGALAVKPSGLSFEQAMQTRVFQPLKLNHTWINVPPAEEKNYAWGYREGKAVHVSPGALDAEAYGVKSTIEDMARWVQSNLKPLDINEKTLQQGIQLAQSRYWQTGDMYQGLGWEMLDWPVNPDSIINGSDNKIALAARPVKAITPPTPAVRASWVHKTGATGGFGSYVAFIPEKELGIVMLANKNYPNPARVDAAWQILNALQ
T3 sequence (O60658 whole entry, species assumed): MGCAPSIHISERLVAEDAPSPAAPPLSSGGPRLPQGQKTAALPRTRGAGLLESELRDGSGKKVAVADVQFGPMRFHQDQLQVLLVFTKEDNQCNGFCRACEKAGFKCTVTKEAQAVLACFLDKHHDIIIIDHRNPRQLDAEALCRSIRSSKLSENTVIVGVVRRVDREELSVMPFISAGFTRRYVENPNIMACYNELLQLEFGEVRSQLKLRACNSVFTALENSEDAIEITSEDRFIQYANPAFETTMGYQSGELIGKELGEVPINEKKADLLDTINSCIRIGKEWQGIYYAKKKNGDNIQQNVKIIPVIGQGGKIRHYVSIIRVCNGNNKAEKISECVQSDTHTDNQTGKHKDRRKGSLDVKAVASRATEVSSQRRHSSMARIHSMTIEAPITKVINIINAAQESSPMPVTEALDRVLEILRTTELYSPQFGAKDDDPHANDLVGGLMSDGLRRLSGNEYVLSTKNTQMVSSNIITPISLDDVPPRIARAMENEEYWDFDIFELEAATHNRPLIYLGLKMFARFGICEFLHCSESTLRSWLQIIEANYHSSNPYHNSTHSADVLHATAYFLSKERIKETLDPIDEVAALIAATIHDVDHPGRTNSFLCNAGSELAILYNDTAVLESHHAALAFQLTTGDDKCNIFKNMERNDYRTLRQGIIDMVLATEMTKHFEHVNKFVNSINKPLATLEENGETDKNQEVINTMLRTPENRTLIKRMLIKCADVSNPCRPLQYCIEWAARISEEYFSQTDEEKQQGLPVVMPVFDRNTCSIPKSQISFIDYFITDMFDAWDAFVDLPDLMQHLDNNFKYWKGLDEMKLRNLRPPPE

Consider `COc1cc2c(cc1OC)CN(C(=O)Cn1cnc3ccccc3c1=O)[C@H](C(=O)O)C2` (racemic) [Compound 7], for which the half-inhibitory concentration (IC50) (in general, the midpoint of a concentration-inhibition curve) against PDE4B2 amounted to 89 µM. The “cellular cAMP increase (FRET ratio change) over forskolin alone” value in series [1] was “significantly enhanced”. Also, the “Hsp20 phosphorylation (serine 16)” value in the series with SH-SY5Y cells is listed as “induced Hsp20 phosphorylation”.

Regarding `COc1cc2c(cc1OC)CN(C(=O)CCc1c[nH]c3ccccc13)[C@H](C(=O)O)C2` (racemic) [Compound 8], the “fold better IC50 than moexipril” value on PDE4B2 (PDE4B2) stood at 7 fold. This compound also had a concentration for half-maximal inhibition (IC50) at PDE4B2 of 6.9 µM. In series [1], the “cellular cAMP increase (FRET ratio change) over forskolin alone” value is reported as “significantly enhanced”. Also, the “Hsp20 phosphorylation (serine 16)” value in the series with SH-SY5Y cells is on record as “induced Hsp20 phosphorylation”.

For the compound `CCCCCCOC(=O)[C@]1(O)C[C@@H]2O[C@@]1(C)n1c3ccccc3c3c4c(c5c6ccccc6n2c5c31)C(=O)NC4` [KT5720], the “effect on Hsp20 phosphorylation induced by moexipril and forskolin” value in the series with SH-SY5Y cells (KT5720 4 μM 20 min before forskolin 10 μM with moexipril 50 μM, 5 min) is reported as “attenuate”.

As for `COc1ccc([C@]2(C#N)CC[C@@H](C(=O)O)CC2)cc1OC1CCCC1` [cilomilast], the brain penetration entry in series [2] was “limited”.

Take `CCOC(=O)[C@H](CCc1ccccc1)N[C@@H](C)C(=O)N1Cc2cc(OC)c(OC)cc2C[C@H]1C(=O)O` [moexipril]: the IC50 was 38 µM against PDE4B2; 230 µM against PDE4D5 (PDE4D5, n = 3); 40 nM in the series with porcine serum ACE. Besides, the “fold lower sensitivity to inhibition than PDE4B2” value at PDE4D5 (PDE4D5 vs PDE4B2) worked out at 6 fold. Further, at PDE8A, the “activity against PDE8A” value was “no activity”. Moreover, on PDE5, the “activity against PDE5” value is on record as “no activity”. Also, the “cellular cAMP increase (FRET ratio change) over forskolin alone” value in series [1] is “markedly potentiated; also recorded: significantly enhance”. Further, in the series on SH-SY5Y cells, the “Hsp20 phosphorylation (serine 16)” value is “significantly increased”. Moreover, the colloidal aggregation result in series [3] was “no particles were observed”. Besides, the inhibition of beta-lactamase entry against beta-lactamase is listed as “did not inhibit”. For the same compound, the Cmax (commonly the peak of the concentration-time curve) in series [4] (conversion of 25 μg/L, read-out: Cmax) is approximately 50 nM; in series [4] (one PK assessment), 25 µg/L. Moreover, the brain uptake entry in series [2] was “poor uptake by the brain”. The emetogenic activity entry in series [5] is “apparently lacking emetogenic activity”.

For `COc1cc2c(cc1OC)CN(C(=O)[C@H](C)N[C@@H](CCc1ccccc1)C(=O)O)[C@H](C(=O)O)C2` [moexiprilat], the brain uptake entry in [2] was “poor uptake by the brain”.

For `COc1ccc(C2CNC(=O)C2)cc1OC1CCCC1` (stereo not shown) [rolipram], in the series with SH-SY5Y cells, the “Hsp20 phosphorylation (serine 16)” value is recorded as “significantly increased”.
